Test results published in patent publication US20230339937A1, “CONDENSED RING COMPOUNDS THAT INHIBIT H-PGDS” (SATO PHARMACEUTICAL CO., LTD., priority 2020, published 2023).
Where a name gives a salt, the structure may show the parent alone.

Target: T1, Recombinant human H-PGDS (Homo sapiens, UniProt O60760)
T1 construct: made in house; host or cells: E. coli
Test: H-PGDS inhibitory activity (prostaglandin D2 production from prostaglandin H2, measured by LC-MS/MS)
Type: biochemical
Settings: recombinant human H-PGDS 1.0 nM expressed in E. coli; prostaglandin H2 25 μM; preincubated 15 minutes on ice, reacted on ice for 1 minute; concentration that inhibits prostaglandin D2 production by 50%
Protocol: The H-PGDS inhibitory activity of each Example compound was measured according to the method reported by LIN, Jiang. et al. (NO 2007/041634).
Recombinant human H-PGDS (final concentration: 1.0 nM) expressed in E. coli was mixed in an assay buffer containing 20 mM Tris-HCl (pH 8.0), 2 mM magnesium chloride, 2 mM reduced glutathione, and 0.5 mg/mL γ-globulin, and 150 μL of the mixture was dispensed into a 8-strip PCR tube (BM Equipment Co., Ltd.). Test compounds (Example compounds) (16.5 μL) at various concentrations dissolved in DMSO were added and the mixture was preincubated for 15 minutes on ice.
Prostaglandin H2 (final concentration: 25 μM) (Cayman Chemical) was dispensed into another 8-strip PCR tube, and the solvent was dried and solidified using a vacuum concentrator (Thermo Fisher Scientific). To the dried and solidified prostaglandin H2 was added 50 μL of the assay buffer containing H-PGDS and each test compound after the preincubation, and the mixture was reacted on ice for 1 minute. 45 μL of this mixture was added to 45 μL of a stop solution (50 mM aqueous citric acid solution containing iron chloride at a final concentration of 4 mg/mL) to stop the reaction. Then, the reaction solution was deproteinized, added to a 96 square deep well plate (SHONANMARUHACHI STEC Co., Ltd.), and the prostaglandin D2 concentration in the reaction solution was measured by LC-MS/MS. ACQUITY (registered trademark) TQD (Waters) was used as a measuring instrument.
Prostaglandin Da production activity (f) in the group with each test compound when a value obtained by subtracting the amount of production of prostaglandin D2 in the group without enzyme, which is non-specific production of prostaglandin D2, from the amount of production of prostaglandin Da in the group without test compound (DMSO-addition group) in each 8-strip PCR tube is 100% was calculated.

T1 sequence (O60760 whole entry): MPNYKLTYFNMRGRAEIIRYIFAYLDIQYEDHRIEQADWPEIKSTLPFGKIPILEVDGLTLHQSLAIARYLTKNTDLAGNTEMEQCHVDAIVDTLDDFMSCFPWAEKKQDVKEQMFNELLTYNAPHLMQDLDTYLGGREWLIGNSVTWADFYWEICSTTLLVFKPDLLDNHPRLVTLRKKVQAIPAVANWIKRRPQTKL

SMILES | IC50
CCCCNC(=O)c1ccc(-c2nccc3occc23)cc1 [Example 75, N-butyl-4-(furo[3,2-c]pyridin-4-yl)benzamide] | 0.02 µM
CCCCCCNC(=O)c1ccc(-c2nccc3occc23)cc1 [Example 76, 4-(furo[3,2-c]pyridin-4-yl)-N-hexylbenzamide] | 0.013 µM
O=C(NCc1cccnc1)c1ccc(-c2nccc3occc23)cc1 [Example 77, 4-(furo[3,2-c]pyridin-4-yl)-N-(pyridin-3-ylmethyl) benzamide] | 0.024 µM
COCCNC(=O)c1ccc(-c2nccc3occc23)cc1 [Example 78, 4-(furo[3,2-c]pyridin-4-yl)-N-(2-methoxyethyl) benzamide] | 0.05 µM
COCCCNC(=O)c1ccc(-c2nccc3occc23)cc1 [Example 79, 4-(furo[3,2-c]pyridin-4-yl)-N-(3-methoxypropyl) benzamide] | 0.027 µM
CCOCCNC(=O)c1ccc(-c2nccc3occc23)cc1 [Example 80, N-(2-ethoxyethyl)-4-(furo[3,2-c]pyridin-4-yl)benzamide] | 0.032 µM
O=C(NCC1CCOC1)c1ccc(-c2nccc3occc23)cc1 (stereo not shown) [Example 81, 4-(furo[3,2-c]pyridin-4-yl)-N-[(tetrahydrofuran-3-yl)methyl] benzamide] | 0.011 µM
O=C(NCC1CCOCC1)c1ccc(-c2nccc3occc23)cc1 [Example 82, 4-(furo[3,2-c]pyridin-4-yl)-N-[(tetrahydro-2H-pyran-4-yl)methyl] benzamide] | 0.011 µM
O=C(NCC1CC1)c1ccc(-c2nccc3occc23)cc1 [Example 83, N-(cyclopropyl-methyl)-4-(furo[3,2-c]pyridin-4-yl)benzamide] | 0.015 µM
O=C(NCC1CCCC1)c1ccc(-c2nccc3occc23)cc1 [Example 84, N-(cyclopenthyl-methyl)-4-(furo[3,2-c]pyridin-4-yl)benzamide] | 0.014 µM
O=C(NCC1CCCCC1)c1ccc(-c2nccc3occc23)cc1 [Example 85, N-(cyclohexyl-methyl)-4-(furo[3,2-c]pyridin-4-yl)benzamide] | 0.032 µM
O=C(NC1CCC1)c1ccc(-c2nccc3occc23)cc1 [Example 86, N-cyclobutyl-4-(furo[3,2-c]pyridin-4-yl)benzamide] | 0.021 µM
O=C(NC1CCCC1)c1ccc(-c2nccc3occc23)cc1 [Example 87, N-cyclopenthyl-4-(furo[3,2-c]pyridin-4-yl)benzamide] | 0.012 µM
O=C(NC1CCCCC1)c1ccc(-c2nccc3occc23)cc1 [Example 88, N-cyclohexyl-4-(furo[3,2-c]pyridin-4-yl)benzamide] | 0.0042 µM
O=C(Nc1ccccc1)c1ccc(-c2nccc3occc23)cc1 [Example 89, 4-(furo[3,2-c]pyridin-4-yl)-N-phenylbenzamide] | 0.0037 µM
O=C(NCCCCCCO)c1ccc(-c2nccc3occc23)cc1 [Example 90, 4-(furo[3,2-c]pyridin-4-yl)-N-(6-hydroxyhexyl) benzamide] | 0.015 µM
CCC(O)CNC(=O)c1ccc(-c2nccc3occc23)cc1 (stereo not shown) [Example 91, 4-(furo[3,2-c]pyridin-4-yl)-N-(2-hydroxybutyl) benzamide] | 0.032 µM
CC(C)(O)CNC(=O)c1ccc(-c2nccc3occc23)cc1 [Example 92, 4-(furo[3,2-c]pyridin-4-yl)-N-(2-hydroxy-2-methylpropyl) benzamide] | 0.022 µM
O=C(NCc1ccccn1)c1ccc(-c2nccc3occc23)cc1 [Example 93, 4-(furo[3,2-c]pyridin-4-yl)-N-(pyridin-2-ylmethyl) benzamide] | 0.032 µM

SMILES | IC50
O=C(NCC1CCCO1)c1ccc(-c2nccc3occc23)cc1 (stereo not shown) [Example 94, 4-(furo[3,2-c]pyridin-4-yl)-N-[(tetrahydro-furan-2-yl)methyl] benzamide] | 0.012 µM
O=C(NC1CC1)c1ccc(-c2nccc3occc23)cc1 [Example 95, N-cyclopropyl-4-(furo[3,2-c]pyridin-4-yl)benzamide] | 0.0087 µM
O=C(NCCCCO)c1ccc(-c2nccc3occc23)cc1 [Example 96, 4-(furo[3,2-c]pyridin-4-yl)-N-(4-hydroxybutyl) benzamide] | 0.017 µM
O=C(NC1CCc2ccccc21)c1ccc(-c2nccc3occc23)cc1 (stereo not shown) [Example 97, N-(2,3-dihydro-1H-inden-1-yl)-4-(furo[3,2-c]pyridin-4-yl)benzamide] | 0.0028 µM
CC(C)N(CCNC(=O)c1ccc(-c2nccc3occc23)cc1)C(C)C [Example 98, N-[2-(diisopropylamino)ethyl]-4-(furo[3,2-c]pyridin-4-yl)benzamide dihydrochloride] | 0.107 µM
Cn1nnnc1N1CCC(NC(=O)c2ccc(-c3nccc4occc34)cc2)CC1 [Example 99, 4-(furo[3,2-c]pyridin-4-yl)-N-[1-(1-methyl-1H-tetrazol-5-yl)piperidin-4-yl]benzamide] | 0.0016 µM
O=C(Nc1cc(-c2ccccc2)[nH]n1)c1ccc(-c2nccc3occc23)cc1 [Example 100, 4-(furo[3,2-c]pyridin-4-yl)-N-(5-phenyl-1H-pyrazol-3-yl)benzamide] | 0.019 µM
O=C(NC1CCN(c2nccs2)CC1)c1ccc(-c2nccc3occc23)cc1 [Example 101, 4-(furo[3,2-c]pyridin-4-yl)-N-[1-(thiazol-2-yl)piperidin-4-yl]benzamide] | 0.001 µM
NS(=O)(=O)c1ccc(NC(=O)c2ccc(-c3nccc4occc34)cc2)cc1 [Example 102, 4-(furo[3,2-c]pyridin-4-yl)-N-(4-sulfamoylphenyl) benzamide] | 0.0018 µM
O=C(Nc1cccnc1)c1ccc(-c2nccc3occc23)cc1 [Example 103, 4-(furo[3,2-c]pyridin-4-yl)-N-(pyridin-3-yl)benzamide] | 0.0021 µM
O=C(Nc1cc(C2CC2)[nH]n1)c1ccc(-c2nccc3occc23)cc1 [Example 104, N-(5-cyclopropyl-1H-pyrazol-3-yl)-4-(furo[3,2-c]pyridin-4-yl)benzamide] | 0.008 µM
NS(=O)(=O)c1cccc(NC(=O)c2ccc(-c3nccc4occc34)cc2)c1 [Example 105, 4-(furo[3,2-c]pyridin-4-yl)-N-(3-sulfamoylphenyl) benzamide] | 0.0023 µM
CS(=O)(=O)c1cccc(NC(=O)c2ccc(-c3nccc4occc34)cc2)c1 [Example 106, 4-(furo[3,2-c]pyridin-4-yl)-N-[3-(methylsulfonyl)phenyl]benzamide] | 0.0037 µM
O=C(Nc1ccccn1)c1ccc(-c2nccc3occc23)cc1 [Example 107, 4-(furo[3,2-c]pyridin-4-yl)-N-(pyridin-2-yl)benzamide] | 0.019 µM
O=C(Nc1ccncc1)c1ccc(-c2nccc3occc23)cc1 [Example 108, 4-(furo[3,2-c]pyridin-4-yl)-N-(pyridin-4-yl)benzamide] | 0.005 µM
CS(=O)(=O)c1ccc(NC(=O)c2ccc(-c3nccc4occc34)cc2)cc1 [Example 109, 4-(furo[3,2-c]pyridin-4-yl)-N-[4-(methylsulfonyl)phenyl]benzamide] | 0.0029 µM
O=C(Nc1ccccc1F)c1ccc(-c2nccc3occc23)cc1 [Example 110, N-(2-fluorophenyl)-4-(furo[3,2-c]pyridin-4-yl)benzamide] | 0.0057 µM
O=C(Nc1ccc(F)cc1)c1ccc(-c2nccc3occc23)cc1 [Example 111, N-(4-fluorophenyl)-4-(furo[3,2-c]pyridin-4-yl)benzamide] | 0.0055 µM
